pIC50: −log10 of the molar value. Where two headings read alike, the source gives them in different places.
What was measured:
[1] = Microsomal stability, rat liver microsomes; format: in vitro ADME
[2] = Microsomal stability, human liver microsomes; format: in vitro ADME
P450 2C9 = P450 2C9 (Homo sapiens, UniProt P11712); test: P450 inhibition at 10 μM; format: in vitro ADME
ROCK-I = ROCK-I (Homo sapiens, UniProt Q13464); test: ROCK-I biochemical counter-screen; details: Table 6; read-out: Biochemical Inhibition IC50 (nM) ROCK-I
P450 1A2 = target: T1, P450 1A2 (Homo sapiens, UniProt P05177)
T1 sequence (P05177 1-516): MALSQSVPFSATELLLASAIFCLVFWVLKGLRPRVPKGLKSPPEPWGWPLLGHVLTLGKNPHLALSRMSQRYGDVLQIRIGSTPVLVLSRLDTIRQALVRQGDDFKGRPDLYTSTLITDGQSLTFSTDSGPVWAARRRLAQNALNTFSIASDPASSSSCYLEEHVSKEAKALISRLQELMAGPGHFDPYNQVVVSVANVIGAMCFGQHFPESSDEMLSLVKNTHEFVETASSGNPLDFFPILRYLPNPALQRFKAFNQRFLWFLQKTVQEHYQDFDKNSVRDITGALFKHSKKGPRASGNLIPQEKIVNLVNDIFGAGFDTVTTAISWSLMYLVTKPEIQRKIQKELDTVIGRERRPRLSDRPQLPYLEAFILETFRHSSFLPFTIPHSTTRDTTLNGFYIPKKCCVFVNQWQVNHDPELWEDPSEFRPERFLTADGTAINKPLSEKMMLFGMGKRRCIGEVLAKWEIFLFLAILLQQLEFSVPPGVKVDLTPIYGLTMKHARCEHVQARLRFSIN

P450 3A4 = P450 3A4 (Homo sapiens, UniProt P08684); test: P450 inhibition at 10 μM; format: in vitro ADME
ROCK-II = ROCK-II (Homo sapiens, UniProt O75116); test: ROCK-II biochemical counter-screen; details: for IC50: Table 4, means of ≥2 experiments, read-out: IC50 (nM) ROCK-II
P450 2D6 = P450 2D6 (Homo sapiens, UniProt P10635); test: P450 inhibition at 10 μM; format: in vitro ADME
JNK3 = JNK3 (Homo sapiens, UniProt P53779); test: JNK3 biochemical counter-screen; details: Table 6; read-out: Biochemical Inhibition IC50 (nM) JNK3
[3] = tested on: cofilin phosphorylation in A7r5 cells; test: In-cell Western assay of cofilin phosphorylation in A7r5 cells; format: cell-based
Experimental: A7r5 (15,000 cells/well) were plated in a clear-bottomed Packard View black 96-well plate in 100 μl of 10% FBS DMEM:F12 medium and were allowed to attach overnight. The next day, the cells were serum starved in 1% FBS DMEM medium for 2 hr and then treated with the compounds for 1 hr. […] Next day, they were washed twice with PBS-0.1% Tween 20 (PBST) washing solution for 5 min each at room temperature on the orbital shaker, followed by one wash with Licor Blocking Buffer containing 0.05% Tween-20 for 5 min on the shaker at RT. The cells were then incubated with secondary antibody goat anti-rabbit IR800 (1:500 dilution) for 1 hr at RT in the dark (covered the plate with foil) in Licor blocking buffer-containing Tween-20. Following this, cells were washed twice with PBST for 5 min each at room temperature and then once with Licor blocking buffer-containing 0.05% Tween-20. The wells were then incubated with ToPro 3 stain (nucleic acid staining), diluted 1:4000 in Licor blocking buffer or Licor blocking buffer with 0.05% Tween-20 for 30 min at room temperature in the dark. Finally the plates were washed twice with PBS and analyzed using the Odyssey LICOR Infrared Scanner.

Limk1 = Limk1 (Homo sapiens, UniProt P53667); test: Limk1 biochemical assay (Reaction Biology, 10-dose IC50); design: His; purchased Reaction Biology Corporation; host or cells: insect cells; details: for IC50: Table 4, means of ≥2 experiments, read-out: IC50 (nM) Limk1
[4] = Plasma pharmacokinetics studies on rats; details: rats; for AUC (iv) / Cl (iv) / T1/2 (iv) / Cmax / Yd (iv): iv dosing 1 mg/kg; for Cmax: read-out: Cmax (iv); for F (%) (po): po dosing 2 mg/kg
Experimental: In vivo pharmacokinetics (PK) studies were conducted for selected compounds during the whole optimization at various stages in order to identify structural elements that are favorable for in vivo applications, and/or to evaluate the feasibility of optimized Limk inhibitors for animal studies.

[5] = tested on: p-cofilin in CEM-SS T cells; test: Cofilin phosphorylation cell assay in CEM-SS T cell lines; format: cell-based; details: Homo sapiens
Experimental: Cells were lysed in NuPAGE LDS Sample Buffer (Invitrogen) followed by sonication. Samples were heated at 90° C. for 10 minutes, separated by SDS-PAGE, and then transferred onto nitrocellulose membranes (Invitrogen). The membranes were washed in TBST for 3 minutes and then blocked for 30 minutes at room temperature with Starting Block blocking buffer (Pierce). […] The blots were washed three times for 15 minutes and scanned with Odyssey Infrared Imager (Li-cor Biosciences). The same blots were also stripped and reprobed with antibodies against GAPDH (Abcam) as a loading control.

P450 3A4, sequence (P08684 whole entry): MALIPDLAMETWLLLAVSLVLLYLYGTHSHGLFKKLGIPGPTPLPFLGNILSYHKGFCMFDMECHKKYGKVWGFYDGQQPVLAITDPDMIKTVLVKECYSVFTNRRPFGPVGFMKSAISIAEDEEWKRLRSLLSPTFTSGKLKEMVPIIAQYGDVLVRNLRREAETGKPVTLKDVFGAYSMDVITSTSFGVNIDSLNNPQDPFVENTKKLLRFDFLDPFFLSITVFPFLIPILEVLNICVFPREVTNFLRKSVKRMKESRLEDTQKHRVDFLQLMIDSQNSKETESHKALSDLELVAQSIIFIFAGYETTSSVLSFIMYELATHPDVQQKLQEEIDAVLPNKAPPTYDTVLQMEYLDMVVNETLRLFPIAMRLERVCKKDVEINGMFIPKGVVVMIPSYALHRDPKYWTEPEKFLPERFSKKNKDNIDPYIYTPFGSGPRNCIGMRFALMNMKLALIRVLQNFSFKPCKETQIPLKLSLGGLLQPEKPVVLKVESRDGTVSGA
Limk1, sequence (P53667 285-638): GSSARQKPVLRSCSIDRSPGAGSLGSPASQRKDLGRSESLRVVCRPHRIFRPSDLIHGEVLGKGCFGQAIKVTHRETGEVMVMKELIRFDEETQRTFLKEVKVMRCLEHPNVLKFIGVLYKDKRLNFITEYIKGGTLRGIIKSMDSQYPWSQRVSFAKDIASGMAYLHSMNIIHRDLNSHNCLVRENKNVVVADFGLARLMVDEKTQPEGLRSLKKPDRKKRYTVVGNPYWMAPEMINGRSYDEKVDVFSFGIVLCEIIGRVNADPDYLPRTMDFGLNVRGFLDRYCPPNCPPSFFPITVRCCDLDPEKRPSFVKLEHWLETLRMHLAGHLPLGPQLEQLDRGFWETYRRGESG
P450 2C9, sequence (P11712 whole entry): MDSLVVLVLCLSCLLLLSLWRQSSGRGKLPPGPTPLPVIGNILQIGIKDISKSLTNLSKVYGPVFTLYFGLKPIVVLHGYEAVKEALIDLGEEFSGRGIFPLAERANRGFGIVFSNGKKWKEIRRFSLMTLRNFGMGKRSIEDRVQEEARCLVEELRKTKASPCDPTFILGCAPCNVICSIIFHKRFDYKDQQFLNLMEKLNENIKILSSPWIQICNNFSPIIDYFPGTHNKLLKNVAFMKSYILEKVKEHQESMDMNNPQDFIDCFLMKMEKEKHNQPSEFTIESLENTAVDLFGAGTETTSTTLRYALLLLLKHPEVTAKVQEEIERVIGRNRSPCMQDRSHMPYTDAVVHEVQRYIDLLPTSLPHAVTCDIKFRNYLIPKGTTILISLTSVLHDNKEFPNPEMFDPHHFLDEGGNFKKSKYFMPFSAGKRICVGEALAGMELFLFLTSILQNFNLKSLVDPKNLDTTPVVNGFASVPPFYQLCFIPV
JNK3, sequence (P53779 whole entry, species assumed): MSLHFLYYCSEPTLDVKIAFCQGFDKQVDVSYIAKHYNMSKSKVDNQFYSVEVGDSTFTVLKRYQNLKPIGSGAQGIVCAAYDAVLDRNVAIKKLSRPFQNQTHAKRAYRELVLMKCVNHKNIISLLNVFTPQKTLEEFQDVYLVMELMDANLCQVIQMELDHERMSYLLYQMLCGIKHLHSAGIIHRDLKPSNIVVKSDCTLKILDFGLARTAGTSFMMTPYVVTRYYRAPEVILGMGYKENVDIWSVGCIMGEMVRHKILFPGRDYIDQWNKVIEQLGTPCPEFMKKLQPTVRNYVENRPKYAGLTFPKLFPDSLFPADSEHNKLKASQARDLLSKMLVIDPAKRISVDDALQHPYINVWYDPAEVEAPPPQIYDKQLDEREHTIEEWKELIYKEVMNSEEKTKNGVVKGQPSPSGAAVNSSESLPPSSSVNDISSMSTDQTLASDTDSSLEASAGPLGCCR
ROCK-I, sequence (Q13464 whole entry, species assumed): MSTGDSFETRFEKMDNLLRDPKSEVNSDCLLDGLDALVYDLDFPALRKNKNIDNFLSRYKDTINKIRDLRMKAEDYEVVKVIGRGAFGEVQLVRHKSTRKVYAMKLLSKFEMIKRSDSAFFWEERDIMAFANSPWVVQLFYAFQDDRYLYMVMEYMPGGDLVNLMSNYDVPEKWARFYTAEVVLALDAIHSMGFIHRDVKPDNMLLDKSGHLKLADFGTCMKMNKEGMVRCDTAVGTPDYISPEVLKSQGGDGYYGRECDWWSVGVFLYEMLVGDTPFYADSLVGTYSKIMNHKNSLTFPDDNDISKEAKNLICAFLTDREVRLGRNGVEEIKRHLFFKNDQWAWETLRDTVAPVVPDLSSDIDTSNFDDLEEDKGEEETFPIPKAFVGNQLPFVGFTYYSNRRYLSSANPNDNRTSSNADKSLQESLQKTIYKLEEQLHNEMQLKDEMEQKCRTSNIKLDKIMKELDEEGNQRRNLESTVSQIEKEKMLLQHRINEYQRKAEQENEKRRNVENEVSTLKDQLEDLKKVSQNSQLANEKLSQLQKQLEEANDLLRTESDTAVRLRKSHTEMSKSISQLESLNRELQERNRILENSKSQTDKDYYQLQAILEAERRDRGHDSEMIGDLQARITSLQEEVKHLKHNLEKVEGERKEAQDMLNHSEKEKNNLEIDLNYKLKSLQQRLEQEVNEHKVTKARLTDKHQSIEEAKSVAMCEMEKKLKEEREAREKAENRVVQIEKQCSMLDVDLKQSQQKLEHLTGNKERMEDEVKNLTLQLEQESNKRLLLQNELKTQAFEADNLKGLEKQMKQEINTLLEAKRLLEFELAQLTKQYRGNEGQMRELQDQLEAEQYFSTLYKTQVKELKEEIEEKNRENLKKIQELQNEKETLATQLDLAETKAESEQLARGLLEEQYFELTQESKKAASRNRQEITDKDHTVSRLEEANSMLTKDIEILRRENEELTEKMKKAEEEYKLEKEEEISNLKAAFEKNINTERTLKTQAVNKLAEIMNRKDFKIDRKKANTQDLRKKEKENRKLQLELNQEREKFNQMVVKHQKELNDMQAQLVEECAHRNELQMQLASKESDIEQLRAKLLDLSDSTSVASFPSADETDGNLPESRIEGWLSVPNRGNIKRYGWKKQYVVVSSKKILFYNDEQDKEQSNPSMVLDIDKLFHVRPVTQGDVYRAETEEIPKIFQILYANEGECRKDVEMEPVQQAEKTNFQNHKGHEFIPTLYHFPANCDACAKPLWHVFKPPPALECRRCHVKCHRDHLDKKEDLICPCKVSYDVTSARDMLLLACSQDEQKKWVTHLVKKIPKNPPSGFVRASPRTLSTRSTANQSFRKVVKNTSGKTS
ROCK-II, sequence (O75116 whole entry, species assumed): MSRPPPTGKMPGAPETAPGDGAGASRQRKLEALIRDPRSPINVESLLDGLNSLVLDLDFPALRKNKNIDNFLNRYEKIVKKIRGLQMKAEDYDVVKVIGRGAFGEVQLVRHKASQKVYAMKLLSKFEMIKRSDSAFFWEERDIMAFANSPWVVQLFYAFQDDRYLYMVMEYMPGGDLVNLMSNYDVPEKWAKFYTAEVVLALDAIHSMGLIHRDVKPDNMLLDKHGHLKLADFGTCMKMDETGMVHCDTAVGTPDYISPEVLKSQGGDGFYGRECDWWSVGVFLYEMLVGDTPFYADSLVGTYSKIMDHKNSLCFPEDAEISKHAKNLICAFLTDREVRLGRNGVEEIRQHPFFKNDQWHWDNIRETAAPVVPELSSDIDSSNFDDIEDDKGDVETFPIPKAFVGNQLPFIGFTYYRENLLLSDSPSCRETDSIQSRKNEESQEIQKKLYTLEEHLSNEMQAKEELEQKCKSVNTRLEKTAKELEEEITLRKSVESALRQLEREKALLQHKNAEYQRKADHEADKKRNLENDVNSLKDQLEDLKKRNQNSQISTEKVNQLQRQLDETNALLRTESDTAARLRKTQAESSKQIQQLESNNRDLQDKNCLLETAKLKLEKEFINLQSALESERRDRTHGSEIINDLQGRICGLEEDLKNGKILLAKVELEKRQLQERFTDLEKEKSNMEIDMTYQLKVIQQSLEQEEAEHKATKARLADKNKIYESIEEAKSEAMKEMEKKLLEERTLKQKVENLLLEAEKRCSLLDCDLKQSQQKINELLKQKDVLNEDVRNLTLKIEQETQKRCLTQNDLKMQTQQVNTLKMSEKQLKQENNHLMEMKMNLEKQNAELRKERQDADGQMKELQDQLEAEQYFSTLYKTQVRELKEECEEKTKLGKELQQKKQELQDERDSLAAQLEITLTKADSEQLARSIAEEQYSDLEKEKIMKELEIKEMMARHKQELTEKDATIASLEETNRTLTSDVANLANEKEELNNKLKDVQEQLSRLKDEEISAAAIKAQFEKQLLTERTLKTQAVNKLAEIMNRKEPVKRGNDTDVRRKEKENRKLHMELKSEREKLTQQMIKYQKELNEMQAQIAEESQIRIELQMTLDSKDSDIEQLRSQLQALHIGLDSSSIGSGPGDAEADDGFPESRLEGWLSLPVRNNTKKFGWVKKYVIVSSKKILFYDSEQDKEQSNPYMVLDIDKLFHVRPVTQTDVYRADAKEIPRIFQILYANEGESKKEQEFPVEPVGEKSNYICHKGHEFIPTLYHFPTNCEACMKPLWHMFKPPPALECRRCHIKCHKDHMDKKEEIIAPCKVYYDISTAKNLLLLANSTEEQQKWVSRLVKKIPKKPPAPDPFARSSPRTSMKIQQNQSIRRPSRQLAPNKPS
P450 2D6, sequence (P10635 whole entry): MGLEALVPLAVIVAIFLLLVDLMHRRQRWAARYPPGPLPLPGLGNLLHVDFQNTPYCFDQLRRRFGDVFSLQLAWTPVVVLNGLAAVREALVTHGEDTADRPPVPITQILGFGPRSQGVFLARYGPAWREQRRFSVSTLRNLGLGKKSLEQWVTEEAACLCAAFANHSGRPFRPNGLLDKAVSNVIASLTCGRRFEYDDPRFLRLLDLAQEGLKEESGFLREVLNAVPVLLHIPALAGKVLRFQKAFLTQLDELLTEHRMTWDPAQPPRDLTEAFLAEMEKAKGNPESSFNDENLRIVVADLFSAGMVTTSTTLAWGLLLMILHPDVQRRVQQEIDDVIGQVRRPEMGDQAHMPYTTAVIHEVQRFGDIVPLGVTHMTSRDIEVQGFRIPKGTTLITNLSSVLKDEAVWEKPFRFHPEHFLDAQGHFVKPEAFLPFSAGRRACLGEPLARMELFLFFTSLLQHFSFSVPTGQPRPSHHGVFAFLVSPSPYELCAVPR

Row | SMILES | Microsomal Stability t1/2 (min) Rat ([1]; rat liver microsomes) | Microsomal Stability t1/2 (min) Human [2] | P450 % inh. at 10 μM 2C9 (P450 2C9) | IC50 (ROCK-I) | P450 % inh. at 10 μM 1A2 (P450 1A2; 10 μM) | P450 % inh. at 10 μM 3A4 (P450 3A4) | IC50 (ROCK-II) | P450 % inh. at 10 μM 2D6 (P450 2D6) | IC50 (JNK3) | IC50 (Limk1) | AUC (iv) [4] | Cl (iv) [4] | T1/2 (iv) [4] | Cmax [4] | Yd (iv) [4] | F (%) (po) [4] | other results
1 | Cc1c[nH]c2ncnc(-c3ccc(NC(=O)N(CCO)c4ccc(F)cc4)cc3)c12 [Compound 18e, 1-(4-Fluorophenyl)-1-(2-hydroxyethyl)-3-(4-(5-methyl-7H-pyrrolo[2,3-d]pyrimidin-4-yl)phenyl)urea] | 52 min | 44 min | 13% | 3920 nM | −4% | 25% | 3240 nM | 3% | > 10000 nM |  |  |  |  |  |  |  | 
2 | Cc1c[nH]c2ncnc(-c3ccc(NC(=O)N(CCO)c4cccc(Cl)c4)cc3)c12 [Compound 18g, 1-(3-Chlorophenyl)-1-(2-hydroxyethyl)-3-(4-(5-methyl-7H-pyrrolo[2,3-d]pyrimidin-4-yl)phenyl)urea] |  |  | 31% | 15000 nM |  | 42% | 11300 nM | 2% |  | 67 nM |  |  |  |  |  |  | Microsomal Stability t1/2 (min) Rat [1]: 20 min; IC50 ([3]; A7R5, read-out: Cofilin Phosphorylation In A7r5 Cells (IC50, nM)): 372 nM; P450 % inh. at 10 μM 1A2 (P450 1A2): −19/31/2/42%
3 | Cc1c[nH]c2ncnc(-c3ccc(NC(=O)N(CCO)c4ccc(Cl)cc4)cc3)c12 [Compound 18h, 1-(4-Chlorophenyl)-1-(2-hydroxyethyl)-3-(4-(5-methyl-7H-pyrrolo[2,3-d]pyrimidin-4-yl)phenyl)urea] | 73 min | >120 min | 23% | 5920 nM |  | 27% | 4360 nM |  | > 10000 nM |  | 13.2 µM·h | 0.18 L/h/kg | 2.6 h | 10.5 µM |  |  | pIC50 ([3]; A7R5, A7r5 cells, read-out: Cofilin Phosphorylation In A7r5 Cells (IC50)): ~7.00
4 | Cc1ccc(N(CCO)C(=O)Nc2ccc(-c3ncnc4[nH]cc(C)c34)cc2)cc1 [Compound 18k, 1-(2-Hydroxyethyl)-3-(4-(5-methyl-7H-pyrrolo[2,3-d]pyrimidin-4-yl)phenyl)-1-p-tolylurea] | 39 min | 56 min | 24% | 7630 nM | −5% | 5% | 5930 nM | −4% | > 10000 nM | 37 nM | 15.6 µM·h | 0.162 L/h/kg | 1.8 h | 9.4 µM | 0.3 L/kg | 24% | 
5 | COc1ccc(N(CCO)C(=O)Nc2ccc(-c3ncnc4[nH]cc(C)c34)cc2)cc1 [Compound 18n, 1-(2-hydroxyethyl)-1-(4-methoxyphenyl)-3-(4-(5-methyl-7H-pyrrolo[2,3-d]pyrimidin-4-yl)phenyl)urea] | 40 min | 56 min |  | > 20000 nM |  |  | > 10000 nM |  | > 10000 nM | 53 nM | 19.4 µM·h | 0.126 L/h/kg | 2.2 h | 10.6 µM |  |  | 
6 | Cc1c[nH]c2ncnc(-c3ccc(NC(=O)N(CCN)c4ccc(Cl)cc4)cc3)c12 [Compound 18p, 1-(2-Aminoethyl)-1-(4-chlorophenyl)-3-(4-(5-methyl-7H-pyrrolo[2,3-d]pyrimidin-4-yl)phenyl)urea] |  |  |  |  |  |  | 460 nM |  |  |  | 0.7 µM·h | 3.35 L/h/kg | 5.1 h | 1.1 µM |  |  | inhibition at 1 µM [5]: > 50%
7 | Cc1c[nH]c2ncnc(-c3ccc(NC(=O)N(CCN(C)C)c4ccc(Cl)cc4)cc3)c12 [Compound 18r, 1-(4-Chlorophenyl)-1-(2-(dimethylamino)ethyl)-3-(4-(5-methyl-7H-pyrrolo[2,3-d]pyrimidin-4-yl)phenyl)urea] |  |  |  |  |  |  | > 10000 nM |  |  | 20 nM | 0.6 µM·h | 2.53 L/h/kg | 6.1 h | 0.2 µM | 17.1 L/kg | 0% | inhibition at 1 µM [5]: > 50%; pIC50 (ROCK-II; read-out: ROCK-II IC50): < 5.00; pIC50 (Limk1; read-out: Limk1 IC50): ~7.70
8 | Cc1[nH]c2ncnc(-c3ccc(NC(=O)N(CCO)c4ccc(Cl)cc4)c(F)c3)c2c1C [Compound 18s, 1-(4-Chlorophenyl)-3-(4-(5,6-dimethyl-7H-pyrrolo[2,3-d]pyrimidin-4-yl)-2-fluorophenyl)-1-(2-hydroxyethyl)urea] | 44 min | 99 min | 13% |  | 40% | 16% |  | 8% | > 10000 nM |  | 14.5 µM·h | 0.27 L/h/kg | 3.2 h | 12.3 µM | 0.5 L/kg | 29% | 
9 | Cc1[nH]c2ncnc(-c3ccc(NC(=O)N(CCN)c4ccc(Cl)cc4)c(F)c3)c2c1C [Compound 18t, 1-(2-Amino-ethyl)-1-(4-chloro-phenyl)-3-[4-(5,6-dimethyl-7H-pyrrolo[2,3-d]pyrimidin-4-yl)-2-fluoro-phenyl]-urea] | >120 min | >120 min | 24% |  | 24% | −11% |  | 52% | > 10000 nM |  |  |  |  |  |  |  | 

Source: patent US20190292189A1, “LIM KINASE INHIBITORS” (VIRONGY, LLC, priority 2016, published 2019)
